The values below come from PubChem BioAssay (NCI).

Some test systems named below: SF-539 CNS; SK-MEL-2 melanoma; UO-31 renal; A498 renal; HCT-116 colon; HOP-92 NSCLC; SK-MEL-28 melanoma; HCT-15 colon; UACC-62 melanoma; NCI-H226 lung.
Assay in all cases: NCI tumour cell line growth inhibition, 48 h

Values joined by “and” are separate entries in the source; they are usually repeats but may differ in a detail not shown here. Identical values can stand only once.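 Growth conditions: 96-well plates. Treatment: test compound, 48 hours, 5 concentrations. Analysis: linear interpolation between bracketing concentrations; unreached endpoints set to highest concentration. The concentration for 50% growth inhibition is given as GI50. TGI is the concentration that stops growth completely.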 Some results are limits rather than exact numbers.

As for `O=c1cc(N2CCOCC2)oc2c(-c3ccccc3)cccc12`, the GI50 in the assay on SF-539 CNS is 5.57 µM; in the assay on SK-MEL-2 melanoma it was 12.1 µM; in the assay with UO-31 renal, 1.39 µM; with A498 renal, 1.53 µM; in the assay with HCT-116 colon, 9.87 µM; with HOP-92 NSCLC it was 3.74 µM. For the same compound, the results for the GI50 with SK-MEL-28 melanoma, in the assay with HCT-15 colon and in the assay with UACC-62 melanoma were 6.57 µM, 4.98 µM and 3.19 µM, respectively. Moreover, the TGI in the assay on SF-539 CNS was 31.6 µM and 29.8 µM; in the assay with SK-MEL-2 melanoma it was 38 µM and 36.9 µM; with A498 renal, 7.54 µM and 13.9 µM; in the assay on HCT-116 colon, > 100 µM and 46.1 µM; in the assay with HOP-92 NSCLC, > 100 µM and 78.5 µM; in the assay with SK-MEL-28 melanoma, greater than 100 µM. Moreover, the TGI in the assay with HCT-15 colon is > 100 µM and 48.7 µM; in the assay with UACC-62 melanoma, 18.8 µM and 21.9 µM; with NCI-H226 lung it was 50 µM and 50.6 µM.

Take `COC(=O)c1ccc2c(c1)[n+](=O)c(C(C)=O)c(C(F)(F)F)n2[O-]`: the GI50 with SF-539 CNS was 1.85 µM; in the assay with SK-MEL-2 melanoma, 2.23 µM; in the assay with UO-31 renal it was 1.71 µM; in the assay on A498 renal, 1.72 µM; in the assay with HCT-116 colon, 1.45 µM; with HOP-92 NSCLC, 1.48 µM. Further, the GI50 in the assay with SK-MEL-28 melanoma was 4.31 µM; in the assay on HCT-15 colon it was 1.83 µM; with UACC-62 melanoma, 1.71 µM; in the assay on NCI-H226 lung, 1.95 µM. In addition, the TGI with SF-539 CNS was 3.36 µM; in the assay on SK-MEL-2 melanoma, 4.8 µM; in the assay on UO-31 renal, 3.15 µM; in the assay with A498 renal, 3.3 µM; with HCT-116 colon, 2.76 µM; in the assay on HOP-92 NSCLC, 3.14 µM. In addition, the TGI in the assay on SK-MEL-28 melanoma amounted to 13.2 µM; in the assay on HCT-15 colon, 3.52 µM; in the assay with UACC-62 melanoma, 3.14 µM; with NCI-H226 lung it was 3.65 µM.

As for `Oc1ccc(Br)cc1CN1CCN(Cc2ccc(Cl)cc2)CC1`, the GI50 is 32 µM in the assay with SF-539 CNS; 13.2 µM in the assay on SK-MEL-2 melanoma; 9.5 µM in the assay with UO-31 renal; 0.4 µM with A498 renal; 21.1 µM in the assay on HCT-116 colon; 11.1 µM in the assay with HOP-92 NSCLC. Moreover, the GI50 in the assay on SK-MEL-28 melanoma was 24 µM; with HCT-15 colon it was 16.1 µM; in the assay with UACC-62 melanoma, 17.6 µM; in the assay on NCI-H226 lung, 20.8 µM. Also, the TGI in the assay on SF-539 CNS was greater than 100 µM; in the assay on SK-MEL-2 melanoma, 40.3 µM; with UO-31 renal it was greater than 100 µM; with A498 renal, 45 µM; in the assay with HCT-116 colon, greater than 100 µM; with HOP-92 NSCLC it was 72.1 µM. Further, the TGI in the assay with SK-MEL-28 melanoma is greater than 100 µM; in the assay with HCT-15 colon it was 51.3 µM; with UACC-62 melanoma, greater than 100 µM; in the assay with NCI-H226 lung it was greater than 100 µM.

On to `CC(C)=CCNc1ncnc2c1ncn2C1OC(COP(=O)(O)O)C(O)C1O` (stereo not drawn), for which the GI50 is 4 µM in the assay on SF-539 CNS; 16.3 µM in the assay with SK-MEL-2 melanoma; 4.1 µM with UO-31 renal; 1.53 µM in the assay with A498 renal; 2.07 µM in the assay with HCT-116 colon; 1.63 µM in the assay on HOP-92 NSCLC. Besides, the GI50 is greater than 100 µM in the assay on SK-MEL-28 melanoma, 2.72 µM in the assay on HCT-15 colon, 9.03 µM in the assay with UACC-62 melanoma and 4.7 µM in the assay on NCI-H226 lung. Besides, the TGI in the assay on SF-539 CNS was 38.9 µM; in the assay with SK-MEL-2 melanoma, 99.8 µM; with UO-31 renal, greater than 52 µM; in the assay on A498 renal, 3.3 µM; in the assay with HCT-116 colon, 25.5 µM; in the assay with HOP-92 NSCLC, 5.1 µM. Also, the TGI in the assay on SK-MEL-28 melanoma was greater than 100 µM; in the assay with HCT-15 colon it was greater than 64.1 µM; with UACC-62 melanoma, greater than 100 µM; with NCI-H226 lung it was 33.9 µM.

As for `CC1=NN(C(=O)CC(=O)Nc2ccccc2)C(=O)C1N=Nc1ccc(S(N)(=O)=O)cc1` (stereo not drawn), the TGI in the assay on SF-539 CNS, in the assay on SK-MEL-2 melanoma, with UO-31 renal, in the assay with A498 renal, with HCT-116 colon and with HOP-92 NSCLC was greater than 100 µM throughout. The TGI in the assay with SK-MEL-28 melanoma is greater than 100 µM; in the assay on HCT-15 colon, greater than 100 µM; in the assay on UACC-62 melanoma it was 92.6 µM; with NCI-H226 lung it was greater than 100 µM.

In the case of `Nc1ccc(Cl)cc1.Nc1ccc(Cl)cc1.Nc1ccc(Cl)cc1.O=C([O-])C(=O)[O-].O=C([O-])C(=O)[O-].[H+].[Ru+5]`, the GI50 was 0.352 µM with SF-539 CNS; 0.219 µM in the assay on SK-MEL-2 melanoma; 0.927 µM with UO-31 renal; greater than 82.1 µM in the assay on A498 renal; greater than 100 µM with HOP-92 NSCLC; less than 0.0174 µM with UACC-62 melanoma. In addition, in the assay with NCI-H226 lung, the GI50 is 99.4 µM. Besides, the TGI with SF-539 CNS is greater than 100 µM; in the assay with UO-31 renal, greater than 26.8 µM; in the assay on A498 renal it was greater than 100 µM; in the assay on HCT-116 colon, greater than 100 µM; with HOP-92 NSCLC it was greater than 100 µM; in the assay on SK-MEL-28 melanoma, greater than 100 µM. The TGI in the assay on HCT-15 colon and in the assay on NCI-H226 lung was greater than 100 µM throughout.
